Measured values: publication PMC9309159, “Identification of heptapeptides targeting a lethal bacterial strain in septic mice through an integrative approach” (Signal Transduction and Targeted Therapy, 2022)
“Also recorded” adds a separate entry of the source.

How the values were obtained:
bacterial strain MSI001 = test: In vitro antibacterial assay (colony counting); type: cell-based, Escherichia coli; conditions: 1 × 10^3 CFU, peptide 0.25, 0.5, 1 μmol/L, 37 °C, 1-8 h, colony count, n = 3
Protocol: Fig. 6 Antimicrobial activity of the C7C-LL37 fusion peptides in vitro. a Primary structures and physical properties of the C7C and LL37 fusion peptides, including LL37, VTK-LL37, LL37-VTK, KYY-LL37 and LL37-KYY, ISS-LL37, INS-LL37. Net charge, PI and GRAVY values were acquired as described above. b Inhibitory effect of C7C-LL37 fusion peptides on bacterial growth. A C7C-LL37 fusion peptide or LL37 alone was added to the cultured bacterial strain MSI001 (1 × 10^3 CFU) at final concentrations of 0.25 μmol/L, 0.5 μmol/L and 1 μmol/L. Sterile DPBS was used as control. After incubation with the C7C-LL37 or LL37 peptides at 37 °C for different times (1-8 h), bacterial colonies were counted. n = 3. *P < 0.05, VTK-LL37 group compared to LL37 group; ^#P < 0.05, LL37-VTK group compared to LL37 group. c, d Inhibitory effect of VTK-LL37 on biofilm formation. The VTK-LL37 or LL37 peptide was added to the bacterial culture at a final concentration of 0-4 μmol/L and incubated at 37 °C for 3 days. Bacterial culture medium and the peptides were refreshed every day. The biofilm was stained with 1% crystal violet, and the precipitates were dissolved in 95% ethanol, followed by detection of absorbance at 570 nm (A570) (c). Moreover, the biofilm was observed under a microscope (d). n = 5. *P < 0.05, VTK-LL37 group compared to LL37 group […]

E. coli MSI001 = test: Survival of mice subjected to septic modeling with MSI001; type: in vivo, C57BL/6 mice; conditions: MSI001 6 × 10^6 CFU/g i.p.; peptide 0.2 nmol/g i.v. 1 h later; observed up to 168 h; Kaplan-Meier; n = 20
Excerpt: (§1) Wild-type C57 mice were intraperitoneally injected with MSI001 bacteria (6 × 10^6 CFU/g body weight) to reproduce a sepsis model. […] Normal saline (NS) was used as control. […] One hour after CLP modeling, the mice were intravenously injected with LL37 or VTK-LL37 peptide at a dosage of 0.2 nmol/g body weight. Equal volume of normal saline (NS) was used as control. […] The mice were intraperitoneally injected with MSI001 bacteria. One hour later, the mice were subjected to tail vein injection (TVI) with VTK-LL37 (VTK-LL37 group), LL37 (LL37 group) or an equivalent volume of NS (sepsis group). Wild-type mice without modeling were used as controls (control group). The blood bacteria were quantitated as colony forming units (CFU) 12 h after injection of bacteria. n = 8. *P < 0.05, compared to control; ^#P < 0.05, compared to sepsis group^; ΔP < 0.05, compared to LL37 group. Results are expressed as the median with range. d Suppression of VTK-LL37 on the production of HMGB1 in the blood of septic mice. […] Twelve hours after bacterial injection, HMGB1 in the serum was quantitated by ELISA. n = 8. *P < 0.05, compared to control; ^#P < 0.05, compared to sepsis group; ^ΔP < 0.05, compared to LL37 group^. Results are expressed as the mean ± SD. e, f Protective effect of VTK-LL37 against organ damage in mice subjected to bacterial injection. […]

CLP mice = test: Survival of CLP mice; type: in vivo, C57BL/6 mice; conditions: peptide 0.2 nmol/g i.v. 1 h after CLP; observed up to 168 h; Kaplan-Meier; n = 15
Excerpt: as §1

[1] = test system: liver, kidney, heart and lung; test: Histopathological evaluation of organ injury in septic mice; type: in vivo, C57BL/6 mice; conditions: peptide i.v. 1 h after sepsis modeling; tissues at 12 h; HE staining, injury scores; n = 6
Excerpt: as §1

Sequence: CVTKLGSLCVPGVGLLGDFFRKSKEKIGKEFKRIVQRIKDFLRNLVPRTES [VTK-LL37]
- inhibitory effect on bacterial growth of MSI001 (bacterial strain MSI001): inhibited MSI001 bacterial growth but also showed stronger antibiotic activity than LL37 alone in the early stage (1-3 h); also recorded: stronger bacteriostatic activity than other LL37 fusion peptides
- survival of septic mice (E. coli MSI001): significantly increased the survival of septic mice
- survival of CLP mice (CLP mice): significantly increased the survival of sepsis mice induced by CLP modeling
- sepsis-induced organ injury [1]: alleviated sepsis-induced injury to multiple organs, including the liver, lung, kidney and heart
